Laboratory results taken from ChEMBL document CHEMBL4033748, “SAR and characterization of non-substrate isoindoline urea inhibitors of nicotinamide phosphoribosyltransferase (NAMPT)” (Bioorg Med Chem Lett, 2017).
In brackets after ≈: the same amount, converted by molar mass. Activity calls are given as the source filed them. The rule behind the calls is not given here.

What was measured:
[1] = test system: PC-3; assay: Antiproliferative activity against human PC3 cells assessed as reduction in cell viability incubated for 5 days by Cell-titer Glo reagent based assay; type: functional
[2] = test system: Liver; assay: Unbound intrinsic clearance in human liver microsomes at 0.5 uM in presence of NADPH incubated for 5 to 30 mins by HPLC-MS/MS method; type: ADME, microsome
[3] = biological target: Nicotinamide phosphoribosyltransferase (Homo sapiens, UniProt P43490)
Sequence of Nicotinamide phosphoribosyltransferase (P43490 whole entry): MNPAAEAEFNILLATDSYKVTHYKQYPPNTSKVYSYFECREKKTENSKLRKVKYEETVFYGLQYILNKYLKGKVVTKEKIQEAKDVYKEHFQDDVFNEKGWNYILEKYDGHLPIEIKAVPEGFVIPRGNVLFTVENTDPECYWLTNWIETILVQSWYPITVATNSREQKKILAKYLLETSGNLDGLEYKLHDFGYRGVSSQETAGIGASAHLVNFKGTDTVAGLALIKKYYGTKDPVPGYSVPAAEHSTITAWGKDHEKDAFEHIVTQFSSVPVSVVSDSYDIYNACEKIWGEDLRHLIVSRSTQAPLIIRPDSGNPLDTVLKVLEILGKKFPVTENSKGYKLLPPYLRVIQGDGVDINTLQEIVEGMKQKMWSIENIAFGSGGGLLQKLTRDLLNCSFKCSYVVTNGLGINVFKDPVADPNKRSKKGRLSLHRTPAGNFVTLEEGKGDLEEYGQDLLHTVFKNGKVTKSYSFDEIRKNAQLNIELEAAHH
Description: Inhibition of C-terminal His-tagged human recombinant NAMPT using FK866 or isoindoline urea-based Oregon green (488) probe incubated for 3 hrs by TR-FRET assay

[4] = test system: Liver; assay: Unbound intrinsic clearance in mouse liver microsomes at 0.5 uM in presence of NADPH incubated for 5 to 30 mins by HPLC-MS/MS method; type: ADME, microsome
[5] = Aqueous solubility of the compound; type: physicochemical; conditions: buffer
[6] = biological target: Cytochrome P450 3A4 (Homo sapiens, UniProt P08684); assay: Inhibition of CYP3A4 (unknown origin); type: ADME
Sequence of Cytochrome P450 3A4 (P08684 whole entry): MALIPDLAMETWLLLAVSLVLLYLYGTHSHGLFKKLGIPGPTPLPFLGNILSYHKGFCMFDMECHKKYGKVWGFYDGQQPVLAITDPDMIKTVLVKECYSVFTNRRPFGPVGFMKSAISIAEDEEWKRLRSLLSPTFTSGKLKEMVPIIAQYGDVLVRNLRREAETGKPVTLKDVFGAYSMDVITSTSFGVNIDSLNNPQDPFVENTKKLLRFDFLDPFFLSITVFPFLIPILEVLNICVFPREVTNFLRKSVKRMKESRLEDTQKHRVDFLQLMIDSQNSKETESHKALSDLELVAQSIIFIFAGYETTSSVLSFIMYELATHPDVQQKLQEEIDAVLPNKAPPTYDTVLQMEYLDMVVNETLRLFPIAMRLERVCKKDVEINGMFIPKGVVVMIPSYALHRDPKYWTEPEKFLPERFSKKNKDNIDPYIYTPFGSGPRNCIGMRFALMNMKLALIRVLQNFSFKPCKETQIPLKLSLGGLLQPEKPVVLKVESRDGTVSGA

[7] = test system: HCT-116; assay: Antitumor activity against human HCT116 cells xenografted in CB17 SCID mouse assessed as tumor growth inhibition at 15 mg/kg/day, po dosed daily (3 days on/4 days off per cycle for 3 cycles); type: functional; conditions: HCT-116, po, 72 h, read-out: TGI
[8] = test system: Rattus norvegicus; assay: Unbound intrinsic clearance in Sprague-Dawley rat at 5 mg/kg, iv; type: ADME, organism-based; conditions: in vivo
[9] = biological target: Cytochrome P450 2C9 (Homo sapiens, UniProt P11712); assay: Inhibition of CYP2C9 (unknown origin); type: ADME
Sequence of Cytochrome P450 2C9 (P11712 whole entry): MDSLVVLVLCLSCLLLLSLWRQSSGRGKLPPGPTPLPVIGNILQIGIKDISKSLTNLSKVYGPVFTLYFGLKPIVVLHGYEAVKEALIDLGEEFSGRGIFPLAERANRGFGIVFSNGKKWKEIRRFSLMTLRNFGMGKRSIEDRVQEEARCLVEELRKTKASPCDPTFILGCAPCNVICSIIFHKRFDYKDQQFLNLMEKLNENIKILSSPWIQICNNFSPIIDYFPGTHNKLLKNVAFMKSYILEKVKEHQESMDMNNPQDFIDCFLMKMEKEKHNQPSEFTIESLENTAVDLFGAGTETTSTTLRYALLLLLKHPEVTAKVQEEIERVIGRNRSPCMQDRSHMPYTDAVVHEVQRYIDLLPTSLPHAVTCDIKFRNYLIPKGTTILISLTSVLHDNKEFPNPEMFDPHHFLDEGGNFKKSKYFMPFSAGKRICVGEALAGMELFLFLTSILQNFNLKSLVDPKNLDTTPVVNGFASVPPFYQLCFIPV

[10] = Oral bioavailability in Sprague-Dawley rat at 5 mg/kg; type: ADME, organism-based; conditions: in vivo
[11] = test system: ES2; conditions: Homo sapiens
Description: Antitumor activity against human ES2 cells xenografted in CB17 SCID mouse assessed as tumor growth inhibition

[12] = test system: Liver; assay: Unbound intrinsic clearance in rat liver microsomes at 0.5 uM in presence of NADPH incubated for 5 to 30 mins by HPLC-MS/MS method; type: ADME, microsome
[13] = Plasma clearance in Sprague-Dawley rat at 5 mg/kg, iv; type: ADME, organism-based
[14] = test system: U-87 MG; conditions: Homo sapiens; U-87MG ATCC
Description: Antitumor activity against human U87MG cells xenografted in CB17 SCID mouse assessed as tumor growth inhibition

[15] = test system: H460LM; conditions: Homo sapiens
Description: Antitumor activity against human H460LM cells xenografted in CB17 SCID mouse assessed as tumor growth inhibition

[16] = Half life in Sprague-Dawley rat at 5 mg/kg, iv; type: ADME, organism-based; conditions: in vivo
[17] = test system: NCI-H345; conditions: Homo sapiens
Description: Antitumor activity against human NCI-H345 cells xenografted in CB17 SCID mouse assessed as tumor growth inhibition

[18] = test system: A2780; conditions: Homo sapiens
Description: Antitumor activity against human A2780 cells xenografted in CB17 SCID mouse assessed as tumor growth inhibition

[19] = Half life in Sprague-Dawley rat at 1 mg/kg, iv; type: ADME, organism-based; conditions: in vivo
[20] = Plasma clearance in Sprague-Dawley rat at 1 mg/kg, iv; type: ADME, organism-based
[21] = Oral bioavailability in Sprague-Dawley rat at 1 mg/kg; type: ADME, organism-based; conditions: in vivo
[22] = test system: Rattus norvegicus; assay: Unbound intrinsic clearance in Sprague-Dawley rat at 1 mg/kg, iv; type: ADME, organism-based; conditions: in vivo

Compound	IC50 ([1]; Homo sapiens, PC-3, 120 h)	CL free [2]	Ki [3]	CL free [4]	IC50 ([1]; pc-3)	solubility [5]	also measured
O=C(Nc1ccc(C2CN(C(=O)c3ccccc3)C2)cc1)N1Cc2ccc(F)cc2C1	3.9 nM	45 mL/min/kg	1.9 nM	433 mL/min/kg	–	–	–
CC(C)CCNC(=O)c1ccc(NC(=O)N2Cc3ccccc3C2)cc1	–	250 mL/min/kg	–	817 mL/min/kg	38 nM	< 5 µM	–
O=C(Nc1ccc(S(=O)(=O)c2ccccc2)cc1)N1Cc2ccccc2C1	30 nM	73.3 mL/min/kg	21 nM	367 mL/min/kg	–	–	–
CC(C)CCNC(=O)c1ccc(NC(=O)N2Cc3cccc(Cl)c3C2)cc1	–	–	–	–	640 nM	–	–
O=C(Nc1ccc(C2CCN(C(=O)c3ccccc3)CC2)cc1)N1Cc2ccccc2C1	2.8 nM	183 mL/min/kg	–	983 mL/min/kg	–	–	–
CC(C)CCNC(=O)c1cccc(NC(=O)N2Cc3ccccc3C2)c1	> 12500 nM	–	> 8900 nM	–	–	–	–
N#CN=C(NCCCCCCOc1ccc(Cl)cc1)Nc1ccncc1 [CHS-828]	4.4 nM	567 mL/min/kg	–	1360 mL/min/kg	–	< 5 µM	–
O=C(NCC1CCOC1)c1ccc(NC(=O)N2Cc3ccccc3C2)cc1 (stereo not given)	–	26.7 mL/min/kg	–	83 mL/min/kg	68 nM	< 5 µM	–
CC(C)C[C@@H](CO)NC(=O)c1ccc(NC(=O)N2Cc3ccccc3C2)cc1	66 nM	56.7 mL/min/kg	–	115 mL/min/kg	–	< 5 µM	–
CC(C)CCNC(=O)c1ccc(NC(=O)N2Cc3ccc(CO)cc3C2)cc1	1.4 nM	–	–	–	–	–	–
COC(=O)c1ccc(NC(=O)N2Cc3ccccc3C2)cc1	–	–	112 nM	–	2300 nM	< 5 µM	–
O=C(NCCCc1ccccc1)c1ccc(NC(=O)N2Cc3ccccc3C2)cc1	21 nM	17670 mL/min/kg	–	–	–	< 5 µM	–
CN1CCN(C(C)(C)C(=O)N2CCC(c3ccc(NC(=O)N4Cc5ccccc5C4)cc3)CC2)CC1	2.3 nM	733 mL/min/kg	1.5 nM	1470 mL/min/kg	–	–	–
COc1ccc2c(c1)CN(C(=O)Nc1ccc(C(=O)NCCC(C)C)cc1)C2	–	–	–	–	> 10000 nM	–	–
CC(C)CCNC(=O)c1ccc(NC(=O)N2Cc3ccncc3C2)cc1	–	–	–	–	8.4 nM	–	–
CC1(C(=O)N2CCC(c3ccc(NC(=O)N4Cc5ccccc5C4)cc3)CC2)COC1	15 nM	50 mL/min/kg	5.1 nM	145 mL/min/kg	–	–	–
Cc1ccc(NC(=O)N2Cc3ccccc3C2)cc1	–	–	2200 nM	–	> 10000 nM	< 5 µM	–
NC(=O)c1ccc(NC(=O)N2Cc3ccccc3C2)cc1	–	20 mL/min/kg	–	148 mL/min/kg	8000 nM	< 5 µM	–
CC(C)CCC(=O)Nc1ccc(NC(=O)N2Cc3ccccc3C2)cc1	17 nM	60 mL/min/kg	58 nM	783 mL/min/kg	–	< 5 µM	–
CC(C)CCn1cc(-c2ccc(NC(=O)N3Cc4ccccc4C3)cc2)cn1	32 nM	–	–	–	–	< 5 µM	–
COc1cc2c(cc1OC)CN(C(=O)Nc1ccc(C(=O)NCCC(C)C)cc1)C2	> 10000 nM	–	> 9000 nM	–	–	–	–
O=C(Nc1ccc(C2CCN(C(=O)[C@@H]3CCCO3)CC2)cc1)N1Cc2ccc(Cl)cc2C1	7.9 nM	217 mL/min/kg	1.7 nM	583 mL/min/kg	–	–	–
CC(C)(C)CCNC(=O)c1ccc(NC(=O)N2Cc3ccccc3C2)cc1	–	217 mL/min/kg	–	145 mL/min/kg	21 nM	< 5 µM	–
CC(C)CCNC(=O)c1ccc(NC(=O)N2Cc3ccccc3C2)nc1	–	53.3 mL/min/kg	–	283 mL/min/kg	14 nM	–	–

Compound	IC50 ([1]; Homo sapiens, PC-3, 120 h)	CL free [2]	Ki [3]	CL free [4]	IC50 ([1]; pc-3)	solubility [5]	also measured
O=C(Nc1ccc(N2CCN(C(=O)c3ccccc3)CC2)cc1)N1Cc2ccccc2C1	84 nM	130 mL/min/kg	–	–	–	–	–
O=C(NCC1CCCOC1)c1ccc(NC(=O)N2Cc3ccccc3C2)cc1 (stereo not given)	17 nM	30 mL/min/kg	–	75 mL/min/kg	–	< 5 µM	–
CCCNC(=O)c1ccc(NC(=O)N2Cc3ccccc3C2)cc1	–	56.7 mL/min/kg	–	71.7 mL/min/kg	880 nM	< 5 µM	–
CC(C)CCNC(=O)c1ccc(NC(=O)N2Cc3ccc(C(F)(F)F)cc3C2)cc1	–	–	–	–	> 10000 nM	–	–
O=C(NC[C@@H]1CCOC1)c1ccc(NC(=O)N2Cc3ccccc3C2)cc1	–	–	–	–	56 nM	17 µM (≈ 6.21 µg/mL)	IC50 [6]: > 20000 nM; inhibition in vivo at 15 mg/kg/day [7]: 78%; CL free [8]: 28.3 mL/min/kg; IC50 [9]: > 20000 nM; bioavailability [10]: 59%; TGI [11]: Active; CL free [12]: < 46.7 mL/min/kg; clearance [13]: 4.33 mL/min/kg; TGI [14]: Active; TGI [15]: Active; half-life [16]: 3 h; TGI [17]: Active; TGI [18]: Active
O=C(NCc1ccc(S(=O)(=O)c2ccccc2)cc1)N1Cc2ccccc2C1	> 10000 nM	650 mL/min/kg	–	3670 mL/min/kg	–	–	–
O=C(NCCCCC1CCN(C(=O)c2ccccc2)CC1)N1Cc2ccccc2C1	8.4 nM	317 mL/min/kg	–	4670 mL/min/kg	–	–	–
CCC(C)C(=O)N1CCC(Oc2ccc(NC(=O)N3Cc4ccccc4C3)cc2)CC1 (stereo not given)	48 nM	633 mL/min/kg	–	2780 mL/min/kg	–	–	–
O=C(NCc1ccccc1)c1ccc(NC(=O)N2Cc3ccccc3C2)cc1	68 nM	58.3 mL/min/kg	–	350 mL/min/kg	–	< 5 µM	–
CC(C)(O)CC(=O)N1CCC(c2ccc(NC(=O)N3Cc4ccc(F)cc4C3)cc2)CC1	3.2 nM	95 mL/min/kg	2.5 nM	143 mL/min/kg	–	–	–
CC(C)CCNC(=O)c1ccc(NC(=O)N2Cc3ccc(C#N)cc3C2)cc1	> 10000 nM	–	–	–	–	–	–
CC(C)C(=O)N1CCC(c2ccc(NC(=O)N3Cc4ccccc4C3)cc2)CC1	18 nM	58.3 mL/min/kg	–	367 mL/min/kg	–	–	–
CC(C)CCNS(=O)(=O)c1ccc(NC(=O)N2Cc3ccccc3C2)cc1	> 10000 nM	433 mL/min/kg	–	4420 mL/min/kg	–	< 5 µM	–
O=C(Nc1ccc(C(=O)N2CCN(c3ccccn3)CC2)cc1)N1Cc2ccccc2C1	19 nM	63.3 mL/min/kg	–	183 mL/min/kg	–	< 5 µM	–
CC(C)(O)CC(=O)N1CCC(c2ccc(NC(=O)N3Cc4ccccc4C3)cc2)CC1	24 nM	58.3 mL/min/kg	5.6 nM	300 mL/min/kg	–	3.3 µM (≈ 1.39 µg/mL)	IC50 [6]: 16000 nM; inhibition in vivo at 15 mg/kg/day [7]: 90%; half-life [19]: 4.8 h; clearance [20]: 1.83 mL/min/kg; IC50 [9]: 8400 nM; bioavailability [21]: 100%; CL free [12]: < 56.7 mL/min/kg; CL free [22]: 28.3 mL/min/kg
CC(C)CCNC(=O)c1ccc(NC(=O)N2Cc3ccccc3C2)cn1	–	217 mL/min/kg	–	1250 mL/min/kg	730 nM	–	–
O=C(/C=C/c1cccnc1)NCCCCC1CCN(C(=O)c2ccccc2)CC1 [DAPORINAD]	5.7 nM	91.7 mL/min/kg	–	258 mL/min/kg	–	< 5 µM	–
CC1(C(=O)N2CCC(c3ccc(NC(=O)N4Cc5ccccc5C4)cc3)CC2)CC1	6.6 nM	56.7 mL/min/kg	4.3 nM	283 mL/min/kg	–	–	–
Cc1ccc2c(c1)CN(C(=O)Nc1ccc(C(=O)NCCC(C)C)cc1)C2	10 nM	–	–	–	–	–	–
CC(C)CCNC(=O)c1ccc(NC(=O)N2Cc3ccc(F)cc3C2)cc1	–	–	–	–	6.5 nM	–	–
CN(CCC(C)(C)C)C(=O)c1ccc(NC(=O)N2Cc3ccccc3C2)cc1	1100 nM	2000 mL/min/kg	160 nM	2170 mL/min/kg	–	< 5 µM	–
O=C(Nc1ccc(C2CCN(S(=O)(=O)C3CC3)CC2)cc1)N1Cc2ccc(F)cc2C1	6.5 nM	58.3 mL/min/kg	3.9 nM	500 mL/min/kg	–	–	–
O=C(Nc1ccc(C2=CCN(C(=O)c3ccccc3)CC2)cc1)N1Cc2ccccc2C1	8.1 nM	217 mL/min/kg	–	–	–	–	–
CN1CCC(C(=O)N2CCC(c3ccc(NC(=O)N4Cc5ccc(F)cc5C4)cc3)CC2)CC1	5.6 nM	41.7 mL/min/kg	9.4 nM	267 mL/min/kg	–	–	–
